A word on the EC50: it is the concentration at which the effect is half-maximal.

Assay [1] concerns the target T1, CFTR (Homo sapiens, UniProt P13569). Briefly: Membrane Potential Dye, Enteroid Assay B. The following applies: for EC50: read-out: Ent. B EC50. The class given is cell-based. In outline:
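Human intestinal enteroid cells exposed to compound 18-24 h at 37 °C, then loaded with methyl oxonol membrane-potential dye plus CaCC blockers. Chloride transport triggered in chloride-free buffer with 10 μM forskolin, 100 μM IBMX, 300 nM Compound III; fluorescence read 15 min, expressed as % of triple-corrector/potentiator combination control.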

The target of assay [2] is T1, CFTR. As to the kind of experiment: Membrane Potential Dye, Enteroid Assay A. Type of assay: cell-based. The following applies: for EC50: read-out: Ent. A EC50. The procedure, abridged: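 Primary human intestinal enteroid cells exposed to compound for 18–24 hours at 37 °C, then loaded 25 min with methyl oxonol membrane potential dye plus CaCC inhibitors. Chloride transport triggered in chloride-free buffer with 10 μM forskolin, 100 μM IBMX and 300 nM Compound III, fluorescence read 15 min; % Activity relative to a triple-combination corrector/potentiator control.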

Molecules are shown by their SMILES.

T1 sequence (P13569 with tags, fused parts or gaps DEL508-508): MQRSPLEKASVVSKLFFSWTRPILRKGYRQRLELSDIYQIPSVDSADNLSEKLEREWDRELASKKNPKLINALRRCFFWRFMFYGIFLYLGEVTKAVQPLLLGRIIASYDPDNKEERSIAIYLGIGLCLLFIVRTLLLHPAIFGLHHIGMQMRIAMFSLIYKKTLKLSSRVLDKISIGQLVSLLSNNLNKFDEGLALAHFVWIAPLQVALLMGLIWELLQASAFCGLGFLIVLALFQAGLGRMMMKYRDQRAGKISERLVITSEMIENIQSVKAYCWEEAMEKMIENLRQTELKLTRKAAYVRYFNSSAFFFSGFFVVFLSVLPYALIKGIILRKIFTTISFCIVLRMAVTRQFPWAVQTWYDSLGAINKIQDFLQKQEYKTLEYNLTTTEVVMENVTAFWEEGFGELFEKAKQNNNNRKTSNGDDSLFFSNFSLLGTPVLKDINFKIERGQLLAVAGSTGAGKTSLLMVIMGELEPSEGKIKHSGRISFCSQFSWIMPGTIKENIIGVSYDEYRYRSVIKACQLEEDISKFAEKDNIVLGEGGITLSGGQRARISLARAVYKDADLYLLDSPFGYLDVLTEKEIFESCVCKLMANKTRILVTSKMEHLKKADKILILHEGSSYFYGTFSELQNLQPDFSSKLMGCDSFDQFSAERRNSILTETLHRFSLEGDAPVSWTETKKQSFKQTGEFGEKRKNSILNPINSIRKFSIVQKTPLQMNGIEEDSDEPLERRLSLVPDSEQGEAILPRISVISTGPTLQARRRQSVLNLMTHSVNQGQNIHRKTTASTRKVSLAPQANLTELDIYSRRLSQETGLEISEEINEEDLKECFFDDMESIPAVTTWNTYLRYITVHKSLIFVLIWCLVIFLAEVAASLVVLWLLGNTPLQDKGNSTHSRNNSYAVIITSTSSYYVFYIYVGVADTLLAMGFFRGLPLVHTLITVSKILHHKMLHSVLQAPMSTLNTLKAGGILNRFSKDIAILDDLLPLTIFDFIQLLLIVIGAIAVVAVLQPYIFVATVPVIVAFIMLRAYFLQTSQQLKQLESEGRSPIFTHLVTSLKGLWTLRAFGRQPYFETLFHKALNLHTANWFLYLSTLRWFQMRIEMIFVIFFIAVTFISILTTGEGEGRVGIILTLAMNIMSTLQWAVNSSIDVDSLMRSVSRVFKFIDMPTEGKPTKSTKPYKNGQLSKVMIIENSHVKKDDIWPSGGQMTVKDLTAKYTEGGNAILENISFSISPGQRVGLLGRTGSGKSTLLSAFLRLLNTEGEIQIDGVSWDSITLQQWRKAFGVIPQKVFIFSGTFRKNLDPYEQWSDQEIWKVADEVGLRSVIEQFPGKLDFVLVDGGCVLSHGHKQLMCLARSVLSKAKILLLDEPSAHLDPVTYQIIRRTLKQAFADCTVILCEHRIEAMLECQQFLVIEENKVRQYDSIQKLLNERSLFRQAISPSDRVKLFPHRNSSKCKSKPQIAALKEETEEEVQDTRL

Turning to `Cc1cccc(C)c1-c1cc2nc(n1)NS(=O)(=O)c1cccc(c1)C(=O)N(C1CC3(CCN(CCC(F)(F)F)CC3)C1)[C@H](CC(C)C)CO2` [Compound 20, (11R)-6-(2,6-Dimethylphenyl)-11-isobutyl-2,2-dioxo-12-[7-(3,3,3-trifluoropropyl)-7-azaspiro[3.5]nonan-2-yl]-9-oxa-2λ^6-thia-3,5,12,19-tetrazatricyclo[12.3.1.14,8]nonadeca-1(18),4(19),5,7,14,16-hexaen-13-one], on CFTR [1], the “Ent. B Max Activity (%)” value is “+++ (+++ is >60%)” and the EC50 was below 1000 nM. Moreover, on CFTR [2], the “Ent. A Max Activity (%)” value is recorded as “+++ (+++ is >60%)” and the EC50 was below 1000 nM.
In the case of `Cc1cccc(C)c1-c1cc2nc(n1)NS(=O)(=O)c1cccc(c1)C(=O)N(C1CC3(CCN(C(=O)OC(C)C)CC3)C1)[C@H](CC(C)C)CO2` [Compound 21, Isopropyl 2-[(11R)-6-(2,6-dimethylphenyl)-11-isobutyl-2,2,13-trioxo-9-oxa-2λ^6-thia-3,5,12,19-tetrazatricyclo[12.3.1.14,8]nonadeca-1(18),4(19),5,7,14,16-hexaen-12-yl]-7-azaspiro[3.5]nonane-7-carboxylate], at CFTR [1], the “Ent. B Max Activity (%)” value is recorded as “+++ (+++ is >60%)” and the EC50 is below 1000 nM. On CFTR [2], the “Ent. A Max Activity (%)” value is given as “+++ (+++ is >60%)” and the EC50 was below 1000 nM.
Take `COCCN1CCC2(CC1)CC(N1C(=O)c3cccc(c3)S(=O)(=O)Nc3nc(cc(-c4c(C)cccc4C)n3)OC[C@H]1CC(C)C)C2` [Compound 22, (11R)-6-(2,6-dimethylphenyl)-11-isobutyl-12-[7-(2-methoxyethyl)-7-azaspiro[3.5]nonan-2-yl]-2,2-dioxo-9-oxa-2λ^6-thia-3,5,12,19-tetrazatricyclo[12.3.1.14,8]nonadeca-1(18),4(19),5,7,14,16-hexaen-13-one]: at CFTR [1], the “Ent. B Max Activity (%)” value was “+++ (+++ is >60%)” and the EC50 is below 1000 nM. Further, on CFTR [2], the “Ent. A Max Activity (%)” value is given as “+++ (+++ is >60%)” and the EC50 was below 1000 nM.
For the compound `Cc1cccc(C)c1-c1cc2nc(n1)NS(=O)(=O)c1cccc(c1)C(=O)N(C1CN(C(=O)OCc3ccccc3)C1)[C@H](CC(C)C)CO2` [Compound 100, Benzyl 3-[(11R)-6-(2,6-dimethylphenyl)-11-isobutyl-2,2,13-trioxo-9-oxa-2λ^6-thia-3,5,12,19-tetrazatricyclo[12.3.1.14,8]nonadeca-1(18),4(19),5,7,14,16-hexaen-12-yl]azetidine-1-carboxylate], on CFTR [1], the “Ent. B Max Activity (%)” value is listed as “+++ (+++ is >60%)” and the EC50 is below 1000 nM. Besides, at CFTR [2], the “Ent. A Max Activity (%)” value was “+++ (+++ is >60%)” and the EC50 is below 1000 nM.
Take `Cc1cccc(C)c1-c1cc2nc(n1)NS(=O)(=O)c1cccc(c1)C(=O)N(C1CN(C3CC4(CC4)C3)C1)[C@H](CC(C)C)CO2` [Compound 101, (11R)-6-(2,6-Dimethylphenyl)-11-isobutyl-2,2-dioxo-12-(1-spiro[2.3]hexan-5-ylazetidin-3-yl)-9-oxa-2λ^6-thia-3,5,12,19-tetrazatricyclo[12.3.1.14,8]nonadeca-1(18),4(19),5,7,14,16-hexaen-13-one]: on CFTR [1], the “Ent. B Max Activity (%)” value was “+++ (+++ is >60%)” and the EC50 was below 1000 nM. For the same compound, at CFTR [2], the “Ent. A Max Activity (%)” value is on record as “+++ (+++ is >60%)” and the EC50 is below 1000 nM.
Regarding `Cc1cccc(C)c1-c1cc2nc(n1)NS(=O)(=O)c1cccc(c1)C(=O)N(C1CC3(CCN(C)CC3)C1)CC(CC(C)C)(CC(C)C)CO2` (stereo not drawn) [Compound 311], on CFTR [1], the “Ent. B Max Activity (%)” value was “+++ (+++ is >60%)” and the EC50 is below 1000 nM. Besides, on CFTR [2], the “Ent. A Max Activity (%)” value is given as “+++ (+++ is >60%)” and the EC50 is below 1000 nM.
`Cc1cccc(C)c1-c1cc2nc(n1)NS(=O)(=O)c1cccc(c1)C(=O)N([C@H]1CC3(C[C@H](N(C)C)C3)C1)[C@H](CC(C)C)CO2` (stereo partly drawn) [Compound 313]: on CFTR [1], the “Ent. B Max Activity (%)” value was “+++ (+++ is >60%)” and the EC50 is below 1000 nM. Also, at CFTR [2], the “Ent. A Max Activity (%)” value is “+++ (+++ is >60%)” and the EC50 is below 1000 nM.
Regarding `CCOC(=O)N1CCC2(CC1)CC(N1C(=O)c3cccc(c3)S(=O)(=O)Nc3nc(cc(-c4c(C)cccc4C)n3)OC[C@H]1CC(C)C)C2` [Compound 315], on CFTR [1], the “Ent. B Max Activity (%)” value is “+++ (+++ is >60%)” and the EC50 is below 1000 nM. Also, on CFTR [2], the “Ent. A Max Activity (%)” value is listed as “+++ (+++ is >60%)” and the EC50 is below 1000 nM.
In the case of `Cc1cccc(C)c1-c1cc2nc(n1)NS(=O)(=O)c1cccc(c1)C(=O)N(C1CN(C(C)C)C1)[C@H](CC(C)C)CO2` [Compound 319], at CFTR [1], the “Ent. B Max Activity (%)” value is “+++ (+++ is >60%)” and the EC50 is below 1000 nM. At CFTR [2], the “Ent. A Max Activity (%)” value is reported as “+++ (+++ is >60%)” and the EC50 was below 1000 nM.
On to `Cc1cccc(C)c1-c1cc2nc(n1)NS(=O)(=O)c1cccc(c1)C(=O)N(C1CC3(CCN(CCF)CC3)C1)[C@H](CC(C)C)CO2` [Compound 321], for which, at CFTR [1], the “Ent. B Max Activity (%)” value was “+++ (+++ is >60%)” and the 50% effective concentration (EC50) was below 1000 nM. Also, at CFTR [2], the “Ent. A Max Activity (%)” value is reported as “+++ (+++ is >60%)” and the EC50 was below 1000 nM.
For the compound `COC(=O)N1CCCCC12CC(N1C(=O)c3cccc(c3)S(=O)(=O)Nc3nc(cc(-c4c(C)cccc4C)n3)OC[C@H]1CC(C)C)C2` (stereo partly drawn) [Compound 323], at CFTR [1], the “Ent. B Max Activity (%)” value is recorded as “+++ (+++ is >60%)” and the EC50 was below 1000 nM. On CFTR [2], the “Ent. A Max Activity (%)” value is “+++ (+++ is >60%)” and the EC50 was below 1000 nM.
Turning to `COC(=O)NC1CC2(C1)CC(N1C(=O)c3cccc(c3)S(=O)(=O)Nc3nc(cc(-c4c(C)cccc4C)n3)OC[C@H]1CC(C)C)C2` (stereo partly drawn) [Compound 326], at CFTR [1], the “Ent. B Max Activity (%)” value was “+++ (+++ is >60%)” and the EC50 is below 1000 nM. Further, on CFTR [2], the “Ent. A Max Activity (%)” value is on record as “+++ (+++ is >60%)” and the EC50 was below 1000 nM.
As to `Cc1cccc(C)c1-c1cc2nc(n1)NS(=O)(=O)c1cccc(c1)C(=O)N(C1CN(C(=O)OC(C)(C)C)C1)[C@H](CC(C)C)CO2` [Compound 334], on CFTR [1], the “Ent. B Max Activity (%)” value is “++ (++ is 30-60%)” and the EC50 is below 1000 nM. Also, on CFTR [2], the “Ent. A Max Activity (%)” value is reported as “+++ (+++ is >60%)” and the EC50 is below 1000 nM.
For `Cc1cccc(C)c1-c1cc2nc(n1)NS(=O)(=O)c1cccc(c1)C(=O)N([C@H]1CC3(C[C@@H](CO)C3)C1)[C@H](CC(C)C)CO2` (stereo partly drawn) [Compound 337], on CFTR [1], the “Ent. B Max Activity (%)” value is listed as “+++ (+++ is >60%)” and the half-maximal effective concentration (EC50) is below 1000 nM. Further, on CFTR [2], the “Ent. A Max Activity (%)” value was “+++ (+++ is >60%)” and the EC50 is below 1000 nM.
With `Cc1cccc(C)c1-c1cc2nc(n1)NS(=O)(=O)c1cccc(c1)C(=O)N([C@H]1CC3(C[C@H](C(=O)N(C)C)C3)C1)[C@H](CC(C)C)CO2` (stereo partly drawn) [Compound 343], at CFTR [1], the “Ent. B Max Activity (%)” value was “+++ (+++ is >60%)” and the EC50 is below 1000 nM. Besides, on CFTR [2], the “Ent. A Max Activity (%)” value is reported as “+++ (+++ is >60%)” and the EC50 was below 1000 nM.
Regarding `Cc1cccc(C)c1-c1cc2nc(n1)NS(=O)(=O)c1cccc(c1)C(=O)N([C@H]1C[C@@H](NC(=O)OC(C)(C)C)C1)[C@H](CC(C)C)CO2` [Compound 349], on CFTR [1], the “Ent. B Max Activity (%)” value is recorded as “++ (++ is 30-60%)” and the EC50 is below 1000 nM. For the same compound, on CFTR [2], the “Ent. A Max Activity (%)” value is recorded as “+++ (+++ is >60%)” and the EC50 is below 1000 nM.
Turning to `Cc1cccc(C)c1-c1cc2nc(n1)NS(=O)(=O)c1cccc(n1)C(=O)N(C1CC3(CC3)C1)[C@H](CC(C)(C)C)CO2` [Compound 401], at CFTR [1], the “Ent. B Max Activity (%)” value is recorded as “+++ (+++ is >60%)” and the half-maximal effective concentration (EC50) was below 1000 nM. On CFTR [2], the “Ent. A Max Activity (%)” value is “+++ (+++ is >60%)” and the EC50 is below 1000 nM.
As to `Cc1cccc(C)c1-c1cc2nc(n1)NS(=O)(=O)c1cccc(c1)C(=O)N(C1CC3(CC3)C1)[C@@H](CC(C)C)CO2` [Compound 474, (11S)-6-(2,6-Dimethylphenyl)-11-isobutyl-2,2-dioxo-12-spiro[2.3]hexan-5-yl-9-oxa-2λ^6-thia-3,5,12,19-tetrazatricyclo[12.3.1.14,8]nonadeca-1(18),4(19),5,7,14,16-hexaen-13-one], on CFTR [1], the “Ent. B Max Activity (%)” value is “+ (+ is <300%)” and the EC50 is below 1000 nM. Besides, on CFTR [2], the “Ent. A Max Activity (%)” value is listed as “++ (++ is 30-60%)” and the EC50 was below 1000 nM.

The values are drawn from US20230382925A1, “MODULATORS OF CYSTIC FIBROSIS TRANSMEMBRANE CONDUCTANCE REGULATOR” (VERTEX PHARMACEUTICALS INCORPORATED, priority 2020, published 2023).
